Assay results published in ChEMBL document CHEMBL1201862, “PubChem BioAssay data set” (2004).
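Exposure lasted 48 hours, with cells grown in 96-well plates and compounds tested at five concentrations. GI50 = concentration required for 50% inhibition of growth.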 Active and inactive are the calls of the source. Cut-off read from the data, not from the text of the source: active = GI50 up to about 1.1 µM and inactive = higher.

Key:
Experiment in all cases: growth of human tumour cells (NCI), 48 h
SNB-75 = system: SNB-75
HL-60 = system: HL-60
SNB-19 = system: SNB-19
CAKI-1 = system: CAKI-1
786-0 = system: 786-0
HT-29 = system: HT-29
MCF7 = system: MCF7
CCRF-CEM = system: CCRF-CEM
MDA-MB-231 = system: MDA-MB-231
HOP-92 = system: HOP-92
NCI-H226 = system: NCI-H226
K562 = system: K562
HOP-62 = system: HOP-62
HCT-15 = system: HCT-15
EKVX = system: EKVX
LOX IMVI = system: LOX IMVI
UACC-257 = system: UACC-257
COLO 205 = system: COLO 205
UO-31 = system: UO-31
OVCAR-8 = system: OVCAR-8
M14 = system: M14
MOLT-4 = system: MOLT-4
SK-OV-3 = system: SK-OV-3
U-251 = system: U-251
KM12 = system: KM12
SF-295 = system: SF-295
RXF 393 = system: RXF 393
UACC-62 = system: UACC-62
SF-268 = system: SF-268
SW-620 = system: SW-620
OVCAR-3 = system: OVCAR-3
PC-3 = system: PC-3
MDA-MB-435 = system: MDA-MB-435
SN12C = system: SN12C
MDA-N = system: MDA-N
A549 = system: A549
SF-539 = system: SF-539
BT-549 = system: BT-549
NCI-H460 = system: NCI-H460
SK-MEL-28 = system: SK-MEL-28
SK-MEL-5 = system: SK-MEL-5
RPMI-8226 = system: RPMI-8226
Malme-3M = system: Malme-3M
DU-145 = system: DU-145
T47D = system: T47D
NCI-H522 = system: NCI-H522
ACHN = system: ACHN
Hs-578T = system: Hs-578T
NCI-H23 = system: NCI-H23
A498 = system: A498
SR = system: SR
TK-10 = system: TK-10
IGROV-1 = system: IGROV-1
HCT-116 = system: HCT-116
SK-MEL-2 = system: SK-MEL-2
NCI/ADR-RES = system: NCI/ADR-RES
HCC 2998 = system: HCC 2998
OVCAR-5 = system: OVCAR-5
OVCAR-4 = system: OVCAR-4

COc1ccc(NC(=O)CC(=O)N2N=C(c3ccccc3)C(/N=N/c3ccc(S(=O)(=O)CCOS(=O)(=O)O)cc3)C2=O)cc1 (centres undefined)
GI50 (SNB-75): > 100 µM (inactive) | GI50 (HL-60): > 100 µM (inactive) | GI50 (SNB-19): > 100 µM (inactive) | GI50 (CAKI-1): > 100 µM (inactive) | GI50 (786-0): > 100 µM (inactive) | GI50 (HT-29): > 100 µM (inactive) | GI50 (MCF7): > 100 µM (inactive) | GI50 (CCRF-CEM): > 100 µM (inactive) | GI50 (MDA-MB-231): > 100 µM (inactive) | GI50 (HOP-92): > 100 µM (inactive) | GI50 (NCI-H226): > 100 µM (inactive) | GI50 (K562): > 100 µM (inactive) | GI50 (HOP-62): > 100 µM (inactive) | GI50 (HCT-15): > 100 µM | GI50 (EKVX): > 100 µM (inactive) | GI50 (LOX IMVI): > 100 µM (inactive) | GI50 (UACC-257): > 100 µM (inactive) | GI50 (COLO 205): > 100 µM (inactive) | GI50 (UO-31): > 100 µM (inactive) | GI50 (OVCAR-8): > 100 µM (inactive) | GI50 (M14): > 100 µM (inactive) | GI50 (MOLT-4): > 100 µM (inactive) | GI50 (SK-OV-3): > 100 µM (inactive) | GI50 (U-251): > 100 µM (inactive) | GI50 (KM12): > 100 µM (inactive) | GI50 (SF-295): > 100 µM (inactive) | GI50 (RXF 393): > 100 µM (inactive) | GI50 (UACC-62): > 100 µM (inactive) | GI50 (SF-268): > 100 µM (inactive) | GI50 (SW-620): > 100 µM (inactive) | GI50 (OVCAR-3): > 100 µM (inactive) | GI50 (PC-3): > 100 µM (inactive) | GI50 (MDA-MB-435): > 100 µM (inactive) | GI50 (SN12C): > 100 µM (inactive) | GI50 (MDA-N): > 100 µM (inactive) | GI50 (A549): > 100 µM (inactive) | GI50 (SF-539): > 100 µM (inactive) | GI50 (BT-549): > 100 µM (inactive) | GI50 (NCI-H460): > 100 µM (inactive) | GI50 (SK-MEL-28): > 100 µM (inactive) | GI50 (SK-MEL-5): > 100 µM (inactive) | GI50 (RPMI-8226): > 100 µM (inactive) | GI50 (Malme-3M): > 100 µM (inactive) | GI50 (DU-145): > 100 µM (inactive) | GI50 (T47D): > 100 µM (inactive) | GI50 (NCI-H522): > 100 µM (inactive) | GI50 (ACHN): > 100 µM (inactive) | GI50 (Hs-578T): > 100 µM (inactive) | GI50 (NCI-H23): > 100 µM (inactive) | GI50 (A498): > 100 µM (inactive) | GI50 (SR): > 100 µM (inactive) | GI50 (TK-10): > 100 µM (inactive) | GI50 (IGROV-1): > 100 µM (inactive) | GI50 (HCT-116): > 100 µM (inactive) | GI50 (SK-MEL-2): > 100 µM (inactive) | GI50 (NCI/ADR-RES): > 100 µM (inactive) | GI50 (HCC 2998): > 100 µM (inactive)

CCC(Nc1ncnc2nc[nH]c12)C(=O)O (centres undefined)
GI50 (SNB-75): 26.2 µM (inactive) | GI50 (HL-60): > 100 µM (inactive) | GI50 (SNB-19): > 100 µM (inactive) | GI50 (CAKI-1): > 100 µM (inactive) | GI50 (786-0): > 100 µM (inactive) | GI50 (HT-29): > 100 µM (inactive) | GI50 (MCF7): > 100 µM (inactive) | GI50 (CCRF-CEM): > 100 µM (inactive) | GI50 (MDA-MB-231): > 100 µM (inactive) | GI50 (HOP-92): > 100 µM (inactive) | GI50 (NCI-H226): > 100 µM (inactive) | GI50 (K562): > 100 µM (inactive) | GI50 (HOP-62): > 100 µM (inactive) | GI50 (HCT-15): > 100 µM | GI50 (EKVX): > 100 µM (inactive) | GI50 (LOX IMVI): > 100 µM (inactive) | GI50 (UACC-257): > 100 µM (inactive) | GI50 (OVCAR-5): > 100 µM (inactive) | GI50 (COLO 205): > 100 µM (inactive) | GI50 (UO-31): > 100 µM (inactive) | GI50 (OVCAR-8): > 100 µM (inactive) | GI50 (OVCAR-4): > 100 µM (inactive) | GI50 (M14): > 100 µM (inactive) | GI50 (SK-OV-3): > 100 µM (inactive) | GI50 (U-251): > 100 µM (inactive) | GI50 (KM12): > 100 µM (inactive) | GI50 (SF-295): > 100 µM (inactive) | GI50 (RXF 393): > 100 µM (inactive) | GI50 (UACC-62): > 100 µM (inactive) | GI50 (SF-268): > 100 µM (inactive) | GI50 (SW-620): > 100 µM (inactive) | GI50 (OVCAR-3): > 100 µM (inactive) | GI50 (PC-3): > 100 µM (inactive) | GI50 (MDA-MB-435): > 100 µM (inactive) | GI50 (SN12C): > 100 µM (inactive) | GI50 (MDA-N): > 100 µM (inactive) | GI50 (A549): > 100 µM (inactive) | GI50 (BT-549): > 100 µM (inactive) | GI50 (NCI-H460): > 100 µM (inactive) | GI50 (SK-MEL-28): > 100 µM (inactive) | GI50 (SK-MEL-5): > 100 µM (inactive) | GI50 (RPMI-8226): > 100 µM (inactive) | GI50 (Malme-3M): > 100 µM (inactive) | GI50 (DU-145): > 100 µM (inactive) | GI50 (T47D): > 100 µM (inactive) | GI50 (NCI-H522): > 100 µM (inactive) | GI50 (ACHN): > 100 µM (inactive) | GI50 (Hs-578T): > 100 µM (inactive) | GI50 (NCI-H23): > 100 µM (inactive) | GI50 (A498): > 100 µM (inactive) | GI50 (SR): > 100 µM (inactive) | GI50 (TK-10): > 100 µM (inactive) | GI50 (IGROV-1): > 100 µM (inactive) | GI50 (HCT-116): > 100 µM (inactive) | GI50 (SK-MEL-2): > 100 µM (inactive) | GI50 (NCI/ADR-RES): > 100 µM (inactive) | GI50 (HCC 2998): > 100 µM (inactive)
